Where “and” joins values, the source holds several entries; their conditions need not be identical. Equal entries are not always repeated. Structures can show the parent of a compound that is named as a salt.
Columns and labels:
rat VMAT2-His = target: T1, rat VMAT2-His (Rattus norvegicus, UniProt Q01827); assay: Differential scanning fluorimetry (DSF) with CPM dye: change of melting temperature of purified VMAT2; format: binding; conditions: for ΔTm: Table 1, DSF screening, mean ± SD of triplicates; for ΔTm at 12 µM / ΔTm at 37 µM / ΔTm at 10 µM / ΔTm at 30 µM / ΔTm at 90 µM / ΔTm at 270 µM / ΔTm at 11 µM / ΔTm at 33 µM: Table S2 dose response, read-out: ΔTm; for ΔTm at 12 µM: compound 0,12 µM; for ΔTm at 37 µM: compound 0,37 µM; for ΔTm at 10 µM: compound 10 µM; for ΔTm at 30 µM: compound 30 µM; for ΔTm at 90 µM: compound 90 µM; for ΔTm at 270 µM: compound 270 µM; for ΔTm at 11 µM: compound 1,11 µM; for ΔTm at 33 µM: compound 3,33 µM
T1 construct: The ORF of rat VMAT2 was subcloned into a pFastBac vector; His; made in house; host or cells: Sf9 insect cells (baculovirus)
T1 sequence (Q01827 whole entry): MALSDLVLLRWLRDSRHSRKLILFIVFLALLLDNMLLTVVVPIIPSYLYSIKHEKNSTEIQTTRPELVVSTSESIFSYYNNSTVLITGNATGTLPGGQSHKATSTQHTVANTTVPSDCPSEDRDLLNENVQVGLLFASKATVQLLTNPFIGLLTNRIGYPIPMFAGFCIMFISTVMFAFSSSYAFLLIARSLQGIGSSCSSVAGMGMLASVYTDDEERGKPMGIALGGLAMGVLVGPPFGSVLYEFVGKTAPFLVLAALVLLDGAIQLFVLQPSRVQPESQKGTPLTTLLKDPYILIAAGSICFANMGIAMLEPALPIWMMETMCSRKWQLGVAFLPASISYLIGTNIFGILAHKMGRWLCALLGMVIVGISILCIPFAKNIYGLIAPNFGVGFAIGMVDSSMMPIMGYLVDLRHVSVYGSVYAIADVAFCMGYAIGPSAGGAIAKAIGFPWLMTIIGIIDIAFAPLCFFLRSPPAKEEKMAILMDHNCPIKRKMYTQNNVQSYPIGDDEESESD
Experimental: To screen purified VMAT2 by DSF we expressed the rat VMAT2 protein, as VMAT2-His, in SF9 insect cells using the baculovirus expression system. The transporter was solubilized and purified in n-Dodecyl-β-D-maltoside (DDM)/cholesterol hemisuccinate (CHS) micelles by immobilized metal affinity chromatography (IMAC) and size exclusion chromatography (SEC). […] Screening was performed using DSF and the thiol-reactive dye 7-diethylamino-3-(4-maleimidophenyl)-4-methylcoumarin (CPM), an approach that monitors changes to the protein melting temperature (Tm) upon compound binding. Using CPM or other dyes, DSF-based assays have successfully been used in molecular-based screenings[34],[35]. […] DSF screening was performed in 384 well plates using the thiol-sensing dye 7-diethylamino-3-(4-maleimidophenyl)-4-methylcoumarin (CPM) (Merck). […] Protein melting curves were determined using a LightCycler 480 ii RT-PCR system (Roche), with a temperature ramp increasing from 25 to 95 °C at a rate of 2 °C/min. Data analysis was performed using an in-house software that automatically determines the protein midpoint melting temperature (Tm) based on the second derivative of the melting curves or using the HTSDSF explorer as described in ref. [58]. […] 6 μl of this mix was dispensed to each well of 384 well plates using a Multidrop™ Combi Reagent Dispenser (Thermo Scientific). […] All initial hits were then subjected to an initial validation in triplicates with a compound concentration of 200 μM and a ΔTm > 5× the standard deviation (SD) cut off. […] Processing of the data from the primary screening and the concentration-dependent validation was performed as reported.

human VMAT2 = target: T2, human VMAT2 (Homo sapiens, UniProt Q05940); assay: FFN206 uptake assay in transfected Hek293 cells; format: cell-based; conditions: Table S1, substrate uptake assays in transfected Hek293 cells
T2 construct: expressed in transfected cells; host or cells: Hek293 cells, transient
T2 sequence (Q05940 whole entry): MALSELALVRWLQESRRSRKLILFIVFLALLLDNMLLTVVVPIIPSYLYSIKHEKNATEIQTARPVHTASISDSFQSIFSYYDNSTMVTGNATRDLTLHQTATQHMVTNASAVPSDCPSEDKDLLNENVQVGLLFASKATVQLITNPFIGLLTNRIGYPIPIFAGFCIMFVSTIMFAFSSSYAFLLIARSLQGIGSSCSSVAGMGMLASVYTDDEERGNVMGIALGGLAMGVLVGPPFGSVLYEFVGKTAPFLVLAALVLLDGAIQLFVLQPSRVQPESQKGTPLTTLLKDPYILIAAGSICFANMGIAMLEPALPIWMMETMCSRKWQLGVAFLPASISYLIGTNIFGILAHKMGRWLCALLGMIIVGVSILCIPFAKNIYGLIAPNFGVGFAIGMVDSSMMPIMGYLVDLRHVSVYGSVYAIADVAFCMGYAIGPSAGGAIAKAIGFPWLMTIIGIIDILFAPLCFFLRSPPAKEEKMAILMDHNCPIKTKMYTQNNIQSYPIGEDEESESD

human VMAT1 = target: T3, human VMAT1 (Homo sapiens, UniProt P54219); assay: FFN206 uptake assay in transfected Hek293 cells; format: cell-based; conditions: Table S1, substrate uptake assays in transfected Hek293 cells
T3 construct: expressed in transfected cells; host or cells: Hek293 cells, transient
T3 sequence (P54219 1-525): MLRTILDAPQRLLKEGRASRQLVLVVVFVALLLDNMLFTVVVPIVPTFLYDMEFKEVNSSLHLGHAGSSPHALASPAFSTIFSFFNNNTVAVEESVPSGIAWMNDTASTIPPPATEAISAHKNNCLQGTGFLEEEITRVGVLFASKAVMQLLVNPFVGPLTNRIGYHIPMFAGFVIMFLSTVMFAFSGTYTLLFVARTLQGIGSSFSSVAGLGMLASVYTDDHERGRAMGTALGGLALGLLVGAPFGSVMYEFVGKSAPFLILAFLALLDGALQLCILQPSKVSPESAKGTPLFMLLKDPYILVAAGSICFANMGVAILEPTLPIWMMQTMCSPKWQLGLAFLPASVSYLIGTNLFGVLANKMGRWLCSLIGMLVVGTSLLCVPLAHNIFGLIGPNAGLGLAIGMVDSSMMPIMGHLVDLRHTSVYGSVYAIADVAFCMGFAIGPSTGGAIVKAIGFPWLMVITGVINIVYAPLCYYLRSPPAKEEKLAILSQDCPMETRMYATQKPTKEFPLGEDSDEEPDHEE

VMAT2 [1] = target: T4, VMAT2 (Rattus norvegicus, UniProt Q01827); conditions: hek293 cells, 50 µM
T4 sequence (Q01827 whole entry): as the sequence (Q01827 whole entry) above

rat VMAT2 = rat VMAT2 (Rattus norvegicus, UniProt Q01827); assay: FFN206 uptake assay in transfected Hek293 cells; conditions: for FFN206 uptake relative to no compound (=1), replicate samples: listed as Carvediol
rat VMAT2, sequence (Q01827 whole entry): as above

VMAT2 [2] = target: T4, VMAT2; assay: [3H]-DTBZ competition assay in Hek293 cells expressing VMAT2; conditions: 50 μM compound;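 also: HEK293 cells transfected with VMAT2, pretreated 30 min with compound, then given 5 nM [3H]-DTBZ for 20 min at 37 °C, bound label read by scintillation counting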

**Q.** For COc1cc2c(cc1OC)C1CC(=O)C(CC(C)C)CN1CC2 (stereo not drawn) [Tetrabenazine], which ΔTm (rat VMAT2-His) is on record?
**A.** The ΔTm was 8.17 ± 0.14 oC.

**Q.** And the ΔTm at 12 µM (rat VMAT2-His)?
**A.** The ΔTm at 12 µM was 4.89 °C.

**Q.** And the ΔTm at 37 µM (rat VMAT2-His)?
**A.** The ΔTm at 37 µM was 5.05 °C.

**Q.** And the ΔTm at 10 µM (rat VMAT2-His)?
**A.** The ΔTm at 10 µM was 6.86 °C.

**Q.** And the ΔTm at 30 µM (rat VMAT2-His)?
**A.** Its ΔTm at 30 µM is 4.27 °C.

**Q.** And the ΔTm at 90 µM (rat VMAT2-His)?
**A.** The ΔTm at 90 µM was 4.64 °C.

**Q.** What about the ΔTm at 270 µM (rat VMAT2-His) of the same compound?
**A.** Its ΔTm at 270 µM is 5.17 °C.

**Q.** And the ΔTm at 11 µM (rat VMAT2-His)?
**A.** Its ΔTm at 11 µM is 5.52 °C.

**Q.** What about the ΔTm at 33 µM (rat VMAT2-His) of the same compound?
**A.** The ΔTm at 33 µM was 5.92 °C.

**Q.** And the IC50 (human VMAT2)?
**A.** Its IC50 is 18 nM.

**Q.** And the IC50 (human VMAT1)?
**A.** The IC50 was over 100 µM.

**Q.** What does the source list for COc1ccccc1OCCNCC(O)COc1cccc2[nH]c3ccccc3c12 (stereo not drawn) [Carvedilol]?
**A.** ΔTm (rat VMAT2-His): −2.54 ± 0.19 oC; activity (VMAT2 [1]): 3.22 ± 3.37%; IC50 (rat VMAT2): 185 ± 157 nM; FFN206 uptake relative to no compound (=1), replicate samples (rat VMAT2; Fig. 2b/2c source data, compound 0.0152 μM): 0.766 and 0.8971 and 0.7075 and 0.9947; FFN206 uptake relative to no compound (=1), replicate samples (rat VMAT2; Fig. 2b/2c source data, compound 0.1372 μM): 0.4929 and 0.5853 and 0.5773 and 0.7378; FFN206 uptake relative to no compound (=1), replicate samples (rat VMAT2; Fig. 2b/2c source data, compound 0.4115 μM): 0.3687 and 0.2376 and 0.3168 and 0.3398; FFN206 uptake relative to no compound (=1), replicate samples (rat VMAT2; Fig. 2b/2c source data, compound 1.2346 μM): 0.1087 and 0.07344; FFN206 uptake relative to no compound (=1), replicate samples (rat VMAT2; Fig. 2b/2c source data, compound 3.7037 μM): 0.1063 and 0.05759 and 0.1334 and 0.2157; FFN206 uptake relative to no compound (=1), replicate samples (rat VMAT2; Fig. 2b/2c source data, compound 11.1111 μM): 0.1084 and -0.01428 and 0.1171 and 0.3099; FFN206 uptake relative to no compound (=1), replicate samples (rat VMAT2; Fig. 2b/2c source data, compound 100.0000 μM): -0.01159 and -0.1032 and -0.03855; FFN206 uptake relative to no compound (=1), replicate samples (rat VMAT2; Fig. 2c source data, compound 0.0017 μM): 0.7452 and 0.9945 and 0.9725 and 0.9441; effect on [3H]-DTBZ binding compared with DMSO control (one-way ANOVA, p < 0.001) (VMAT2 [2]): statistically significantly effect

**Q.** COc1ccc(CN2CCN(C(c3ccc(F)cc3)c3ccc(F)cc3)CC2)c(OC)c1OC [Lomerizine, Lomerizine hydrochloride] was tested. Which ΔTm (rat VMAT2-His) did it give?
**A.** The ΔTm was −7.51 ± 0.04 oC.

**Q.** What about the ΔTm at 12 µM (rat VMAT2-His) of the same compound?
**A.** The ΔTm at 12 µM was -0.81 °C.

**Q.** And the ΔTm at 37 µM (rat VMAT2-His)?
**A.** The ΔTm at 37 µM was -0.99 °C.

**Q.** And the ΔTm at 10 µM (rat VMAT2-His)?
**A.** The ΔTm at 10 µM was -2.21 °C.

**Q.** And the ΔTm at 30 µM (rat VMAT2-His)?
**A.** Its ΔTm at 30 µM is -1.43 °C.

**Q.** And the ΔTm at 90 µM (rat VMAT2-His)?
**A.** The ΔTm at 90 µM was -2.04 °C.

**Q.** And the ΔTm at 270 µM (rat VMAT2-His)?
**A.** The ΔTm at 270 µM was -5.36 °C.

**Q.** What about the ΔTm at 11 µM (rat VMAT2-His) of the same compound?
**A.** The ΔTm at 11 µM was -1.46 °C.

**Q.** And the ΔTm at 33 µM (rat VMAT2-His)?
**A.** The ΔTm at 33 µM was -1.47 °C.

**Q.** And the activity (VMAT2 [1])?
**A.** The activity was 113 ± 23.2%.

**Q.** And the IC50 (rat VMAT2)?
**A.** The IC50 was 3900 ± 1690 nM.

**Q.** And the “VMAT2-specific FFN206 uptake relative to DMSO (=1), replicate samples” value (rat VMAT2; Fig. 2a source data, 25 μM compound)?
**A.** The value was 0.1198 and 0.07933 and 0.1667 and 0.07626.

**Q.** And the “effect on [3H]-DTBZ binding compared with DMSO control (one-way ANOVA, p < 0.001)” value (VMAT2 [2])?
**A.** Its value is “no statistically significant effect”.

Source: article PMC9684503 (Communications Biology, 2022)
